One molecule from patent US20120282377A1, “Methods and Formulations for Inhibiting Degradation of Photosensitive Sweeteners and Sweetener Enhancers” (priority 2011, published 2012) can be followed below.

Holding throughout (format): physicochemical
Data set [1] is described as follows: Stability of sweetness enhancer to sunlight exposure in PET bottle with and without UV barrier (Example 1). The following applies: 25 mg/L solution, 395 Langleys (Atlas Sun Test XLS+). The procedure:
Sweetness enhancer 3-((4-amino-2,2 -dioxido-1H-benzo [c][1,2,6]thiadiazin-5-yl)oxy)-2,2-dimethyl-N-propylpropanamide was evaluated for stability to sunlight exposure when formulated into a beverage packaged in PET packaging (bottle) with and without a UV barrier. The UV barrier PET bottle contained a UV absorbent compound that absorbs light up to approximately 390 nm. When a 25 mg/L solution of 3-((4-amino-2,2-dioxido-1H-benzo[c][1,2,6]thiadiazin-5-yl)oxy)-2,2-dimethyl-N-propylpropanamide was exposed to 395 Langleys of radiation (Atlas Sun Test XLS+Instrument) in a clear PET bottle with no UV barrier, 92% of 3-((4-amino-2,2 -dioxido-1H-benzo [c][1,2,6]thiadiazin-5-yl)oxy)-2,2-dimethyl-N-propylpropanamide was lost to degradation. The light exposure in this experiment was approximately equivalent to 24 hours of continuous irradiation or 2-3 days of normal sunlight irradiation (due to day/night cycle). In contrast, when the same experiment was carried out in a UV barrier PET bottle, only 10% of the 3-((4-amino-2,2-dioxido-1H-benzo[c][1,2,6]thiadiazin-5-yl)oxy)-2,2-dimethyl-N-propylpropanamide was lost to degradation.

A short description of data set [2]: Sucrose enhancer stability in prototype beverage formulation, UV irradiation in Atlas SunTest XLS+ (Example 6). The procedure: The stability of sucrose enhancer 3-((4-amino-2,2-dioxido-1H-benzo[c][1,2,6]thiadiazin-5-yl)oxy)-2,2-dimethyl-N-propylpropanamide in regular PET bottles and PET bottles with UV barrier was evaluated. A control formulation was used that contained 106 mg sucrose enhancer in 4163 mg of a prototype beverage formulation. The prototype beverage formulation contained water, HFCS-55, citric acid, potassium citrate, EDTA, salts and vitamins. The samples were exposed to UV light using different Langley irradiation energy exposure at 40° C. in Atlas SunTest XLS+chamber.

The nature of data set [3]: Photodegradation on exposure to sunlight / UV light (background statements). The following applies: sunlight for 2-3 days. The source says:
Monatin (2-amino-4-carboxy-4-hydroxy-5-(3-indolyl)-pentanoic acid or 4-hydroxy-4-(3-indolylmethyl)-glutamic acid) is a natural sweetener. Monatin contains two chiral centers and therefore has four potential isomeric configurations: R,R-; S,S-; R,S-; and S,R-monatin. Different stereoisomers have different sweetening characteristics. Amino et al. have reported that the sweetness intensity is dependent on the optical purity of each stereoisomer (U.S. Patent Publication No. 2005/0020508).

Where [4] appears, read: prototype beverage formulation (control), PET, 0 Langley.
Setting [5] is: prototype beverage formulation, PET with UV barrier, 66 Langley, 40° C.
Where [6] appears, read: prototype beverage formulation, PET with UV barrier, 197 Langley, 40° C.
[7] abbreviates: prototype beverage formulation, PET with UV barrier, 395 Langley, 40° C.
[8] abbreviates: prototype beverage formulation, PET, 66 Langley, 40° C.
The mark [9] stands for this setting: prototype beverage formulation, PET, 197 Langley, 40° C.
Where [10] appears, read: prototype beverage formulation, PET, 395 Langley, 40° C.

As to `CCCNC(=O)C(C)(C)COc1cccc2c1C(N)=NS(=O)(=O)N2` [Sucrose enhancer, 3-((4-amino-2,2-dioxido-1H-benzo[c][1,2,6]thiadiazin-5-yl)oxy)-2,2-dimethyl-N-propylpropanamide], the lost to degradation in data set [1] (UV barrier PET bottle) was determined as 10%; in data set [1] (clear PET bottle with no UV barrier), 92%. Also, the “Loss of Sucrose Enhancer (%)” value in data set [2] (setting [4]) was determined as 0%; in data set [2] (setting [5]) it was 4%; in data set [2] (setting [6]), 5%; in data set [2] (setting [7]), 10%; in data set [2] (setting [8]), 37%; in data set [2] (setting [9]), 75%. Further, the “Loss of Sucrose Enhancer (%)” value in data set [2] (setting [10]) is 92%. For the same molecule, the “Remaining Sucrose Enhancer (%)” value in data set [2] (setting [4]) was found to be 100%; in data set [2] (setting [5]) it was 96%; in data set [2] (setting [6]), 95%; in data set [2] (setting [7]) it was 90%; in data set [2] (setting [8]) it was 63%; in data set [2] (setting [9]) it was 25%. The “Remaining Sucrose Enhancer (%)” value in data set [2] (setting [10]) is recorded as 7.9%. Moreover, the “Remaining Sucrose Enhancer (ppm)” value in data set [2] (setting [4]) was found to be 21.5 ppm; in data set [2] (setting [5]) it was 20.7 ppm; in data set [2] (setting [6]), 20.5 ppm; in data set [2] (setting [7]), 19.3 ppm; in data set [2] (setting [8]), 13.6 ppm; in data set [2] (setting [9]), 5.4 ppm. The “Remaining Sucrose Enhancer (ppm)” value in data set [2] (setting [10]) is recorded as 1.7 ppm. Besides, the “degradation upon exposure to sunlight” value in data set [3] is “completely degraded to inactive ingredients”.
